# Data: ChEMBL document CHEMBL5543125, “Discovery of 2,3-Dihydro[1,4]dioxino[2,3-g]benzofuran Derivatives as Protease Activated Receptor 4 (PAR4) Antagonists with Potent Antiplatelet Aggregation Activity and Low Bleeding Tendency” (J Med Chem, 2024)
# pIC50: −log10 of the molar value. The source made the active and inactive calls. No cut-off for these calls is given here.
# Assays:
# [1] = test system: Plasma; test: Ex vivo antiplatelet aggregation activity in ICR mouse […] assessed as inhibition of PAR4-activated peptide AYPGFK-NH2 induced platelet aggregation at 6 mg/kg, po measured after 2 hrs by light transmission aggregometry; assay type: functional, organism-based
# [2] = test system: Plasma; test: Ex vivo antiplatelet aggregation activity in ICR mouse […] assessed as inhibition of ADP induced platelet aggregation at 6 mg/kg, po measured after 2 hrs by light transmission aggregometry; assay type: functional, organism-based
# [3] = test system: Platelet; test: Inhibition of platelet aggregation in human platelet rich plasma at 20 uM preincubated for 5 mins followed by aggregation inducer addition and measured after 5 mins by light transmission aggregometry relative to control; assay type: functional; conditions: 10 min
# [4] = Clearance in ICR mouse at 2 mg/kg, iv measured upto 24 hrs by LC-MS/MS analysis; assay type: ADME, organism-based; conditions: in vivo
# [5] = test system: Platelet; test: Antiplatelet aggregation activity in ICR mouse plasma assessed as inhibition of thrombin induced platelet aggregation upto 1 uM preincubated for 5 mins followed by aggregation inducer addition and measured after 5 mins by light transmission aggregometry; assay type: functional, cell-based; conditions: time 10.0 min
# [6] = test system: Plasma; test: Anticoagulation activity in ICR mouse platelet poor plasma assessed as elongation of prothrombin time upto 20 uM incubated for 3 mins; assay type: functional, cell-free
# [7] = Tmax in ICR mouse at 12 mg/kg, po measured upto 24 hrs by LC-MS/MS analysis; assay type: ADME, organism-based; conditions: in vivo
# [8] = test system: Plasma; test: Ex vivo antiplatelet aggregation activity in ICR mouse […] assessed as inhibition of PAR4-activated peptide AYPGFK-NH2 induced platelet aggregation at 6 to 12 mg/kg, po measured after 2 hrs by light transmission aggregometry relative to control; assay type: functional; conditions: dose 6-12 mg/kg
# [9] = test system: Platelet; test: Inhibition of platelet aggregation in human platelet rich plasma preincubated for 5 mins followed by aggregation inducer addition and measured after 5 mins by light transmission aggregometry; assay type: functional, cell-based
# [10] = test system: Plasma; test: Ex vivo antiplatelet aggregation activity in ICR mouse […] assessed as inhibition of ADP induced platelet aggregation at 6 to 12 mg/kg, po measured after 2 hrs by light transmission aggregometry relative to control; assay type: functional; conditions: dose 6-12 mg/kg
# [11] = target: T1, Thromboxane A2 receptor (Mus musculus) (UniProt P30987); test: Antagonist activity at thromboxane A2 receptor in ICR mouse plasma assessed as inhibition of U46619 induced platelet aggregation upto 1 uM preincubated for 5 mins followed by aggregation inducer addition and measured after 5 mins by light transmission aggregometry; assay type: functional, cell-free; conditions: time 10.0 min
# T1 sequence (whole entry): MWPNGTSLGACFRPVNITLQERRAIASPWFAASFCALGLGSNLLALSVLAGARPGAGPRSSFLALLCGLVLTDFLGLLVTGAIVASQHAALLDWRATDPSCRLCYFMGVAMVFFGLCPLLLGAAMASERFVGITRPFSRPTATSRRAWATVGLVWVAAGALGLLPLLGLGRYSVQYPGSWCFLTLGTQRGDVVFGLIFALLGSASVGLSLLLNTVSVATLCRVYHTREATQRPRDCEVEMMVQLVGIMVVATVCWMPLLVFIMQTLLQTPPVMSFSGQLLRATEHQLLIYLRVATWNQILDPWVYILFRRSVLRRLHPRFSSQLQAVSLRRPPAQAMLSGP
# [12] = AUC (0 to t) in ICR mouse at 2 mg/kg, iv measured upto 24 hrs by LC-MS/MS analysis; assay type: ADME, organism-based; conditions: in vivo
# [13] = Cmax in ICR mouse at 12 mg/kg, po measured upto 24 hrs by LC-MS/MS analysis; assay type: ADME, organism-based; conditions: in vivo
# [14] = Metabolic stability in human liver microsomes assessed as half life at 1 uM preincubated for 1 hr followed by NADPH addition and measured upto 60 mins by LC-MS/MS analysis; assay type: ADME, Microsome; conditions: time < 120 min
# [15] = Oral bioavailability in ICR mouse at 12 mg/kg measured upto 24 hrs by LC-MS/MS analysis; assay type: ADME, organism-based; conditions: in vivo
# [16] = test system: Platelet; test: Antagonist activity at P2Y1/P2Y12 in ICR mouse plasma assessed as inhibition of ADP induced platelet aggregation upto 1 uM preincubated for 5 mins followed by aggregation inducer addition and measured after 5 mins by light transmission aggregometry; assay type: cell-free; conditions: time 10.0 min
# [17] = target: T2, Platelet glycoprotein VI (Mus musculus) (UniProt P0C191); test: Antagonist activity at GPVI in ICR mouse plasma assessed as inhibition of collagen induced platelet aggregation upto 1 uM preincubated for 5 mins followed by aggregation inducer addition and measured after 5 mins by light transmission aggregometry; assay type: cell-free; conditions: time 10.0 min
# T2 sequence (whole entry): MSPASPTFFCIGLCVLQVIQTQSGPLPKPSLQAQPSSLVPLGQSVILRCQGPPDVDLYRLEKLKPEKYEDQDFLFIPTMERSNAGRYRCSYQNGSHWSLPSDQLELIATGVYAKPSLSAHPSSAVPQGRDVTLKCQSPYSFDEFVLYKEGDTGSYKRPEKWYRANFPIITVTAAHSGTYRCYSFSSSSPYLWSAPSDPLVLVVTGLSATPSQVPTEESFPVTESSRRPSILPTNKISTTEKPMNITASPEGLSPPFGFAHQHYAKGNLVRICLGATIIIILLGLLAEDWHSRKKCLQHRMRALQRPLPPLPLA
# [18] = test system: Plasma; test: Anticoagulation activity in ICR mouse platelet poor plasma assessed as elongation of aPTT upto 20 uM incubated for 3 mins; assay type: functional, cell-free
# [19] = target: Voltage-gated inwardly rectifying potassium channel KCNH2 (Homo sapiens, UniProt Q12809); test: Inhibition of hERG expressed in HEK293 cells by whole cell patch clamp assay; assay type: toxicity, cell-based
# Sequence of Voltage-gated inwardly rectifying potassium channel KCNH2 (Q12809 whole entry): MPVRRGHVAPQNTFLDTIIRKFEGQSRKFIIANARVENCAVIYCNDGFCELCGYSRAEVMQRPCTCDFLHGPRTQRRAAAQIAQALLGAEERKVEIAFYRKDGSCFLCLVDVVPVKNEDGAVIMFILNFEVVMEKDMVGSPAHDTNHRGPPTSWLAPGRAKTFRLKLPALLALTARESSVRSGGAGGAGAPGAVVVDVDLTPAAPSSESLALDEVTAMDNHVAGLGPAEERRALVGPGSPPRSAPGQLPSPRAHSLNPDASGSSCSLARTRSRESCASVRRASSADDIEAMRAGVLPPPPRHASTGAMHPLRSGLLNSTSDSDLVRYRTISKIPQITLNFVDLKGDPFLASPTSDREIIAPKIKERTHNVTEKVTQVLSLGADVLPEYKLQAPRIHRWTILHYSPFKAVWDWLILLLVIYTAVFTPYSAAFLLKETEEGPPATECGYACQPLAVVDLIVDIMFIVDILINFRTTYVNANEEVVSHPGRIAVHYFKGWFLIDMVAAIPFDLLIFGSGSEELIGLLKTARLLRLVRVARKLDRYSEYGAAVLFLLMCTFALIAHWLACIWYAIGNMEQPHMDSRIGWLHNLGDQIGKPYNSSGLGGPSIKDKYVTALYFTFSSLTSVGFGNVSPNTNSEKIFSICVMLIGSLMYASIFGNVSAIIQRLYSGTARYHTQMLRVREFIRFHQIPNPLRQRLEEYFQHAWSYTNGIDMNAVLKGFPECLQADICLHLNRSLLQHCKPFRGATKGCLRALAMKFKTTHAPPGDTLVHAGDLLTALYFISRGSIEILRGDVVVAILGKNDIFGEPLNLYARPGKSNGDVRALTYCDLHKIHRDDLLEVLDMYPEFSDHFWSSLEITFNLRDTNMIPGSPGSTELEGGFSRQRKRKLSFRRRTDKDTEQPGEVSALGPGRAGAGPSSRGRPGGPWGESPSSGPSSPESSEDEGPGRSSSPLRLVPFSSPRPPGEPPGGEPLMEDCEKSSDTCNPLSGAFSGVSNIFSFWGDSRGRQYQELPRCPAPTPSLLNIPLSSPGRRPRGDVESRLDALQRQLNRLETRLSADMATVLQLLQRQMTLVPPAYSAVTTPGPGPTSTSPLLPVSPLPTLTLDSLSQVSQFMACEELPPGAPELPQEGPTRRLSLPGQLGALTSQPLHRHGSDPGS
# [20] = test system: Plasma; test: Ex vivo antiplatelet aggregation activity in po dosed ICR mouse […] assessed as inhibition of PAR4-activated peptide AYPGFK-NH2 induced platelet aggregation measured after 2 hrs by light transmission aggregometry; assay type: functional, organism-based; conditions: dose 1-12 mg/kg
# [21] = target: T3, Proteinase-activated receptor 4 (Mus musculus) (UniProt O88634); test: Antagonist activity at PAR4 in ICR mouse plasma assessed as inhibition of PAR4-activated peptide AYPGPK-NH2 induced platelet aggregation at 200 to 1000 nM preincubated for 5 mins followed by aggregation inducer addition and measured after 5 mins by light transmission aggregometry; assay type: cell-free; conditions: filed as antagonist, dose 200-1000 nM, time 10.0 min
# T3 sequence (whole entry): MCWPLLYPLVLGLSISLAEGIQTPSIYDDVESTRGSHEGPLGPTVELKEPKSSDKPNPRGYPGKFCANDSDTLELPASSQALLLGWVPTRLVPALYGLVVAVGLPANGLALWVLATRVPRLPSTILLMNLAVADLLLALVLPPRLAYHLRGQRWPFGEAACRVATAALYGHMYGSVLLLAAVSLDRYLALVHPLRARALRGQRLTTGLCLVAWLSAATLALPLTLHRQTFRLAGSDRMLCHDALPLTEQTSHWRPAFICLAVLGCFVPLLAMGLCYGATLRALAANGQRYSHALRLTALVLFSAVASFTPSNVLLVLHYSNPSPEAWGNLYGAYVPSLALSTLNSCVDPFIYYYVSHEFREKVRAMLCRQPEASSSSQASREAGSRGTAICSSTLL
# [22] = AUC (0 to t) in ICR mouse at 12 mg/kg, po measured upto 24 hrs by LC-MS/MS analysis; assay type: ADME, organism-based; conditions: in vivo
# [23] = target: T4, Platelet glycoprotein VI (Homo sapiens) (UniProt Q9HCN6); test: Antagonist activity at GPVI in human platelet rich plasma assessed as inhibition of collagen induced platelet aggregation at >=4 uM preincubated for 5 mins followed by aggregation inducer addition and measured after 5 mins by light transmission aggregometry; assay type: cell-free; conditions: filed as antagonist, time 10.0 min
# T4 sequence (whole entry): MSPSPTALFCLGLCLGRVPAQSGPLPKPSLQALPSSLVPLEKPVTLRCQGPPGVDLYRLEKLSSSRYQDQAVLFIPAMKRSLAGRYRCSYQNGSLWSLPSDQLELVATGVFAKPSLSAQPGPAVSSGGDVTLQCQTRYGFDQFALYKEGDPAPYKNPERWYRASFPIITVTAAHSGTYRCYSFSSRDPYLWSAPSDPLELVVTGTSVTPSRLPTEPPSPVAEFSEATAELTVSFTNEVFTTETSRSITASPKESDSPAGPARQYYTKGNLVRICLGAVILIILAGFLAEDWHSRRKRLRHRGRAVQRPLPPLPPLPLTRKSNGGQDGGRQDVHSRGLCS
# [24] = Toxicity in C57BL/6J mouse assessed as prolongation of bleeding time at 3 to 12 mg/kg, po administered via oral gavage and measured after 2 hrs; assay type: organism-based; conditions: in vivo, dose 3-12 mg/kg
# [25] = test system: Plasma; test: Ex vivo antiplatelet aggregation activity in po dosed ICR mouse […] assessed as inhibition of ADP induced platelet aggregation measured after 2 hrs by light transmission aggregometry; assay type: functional, organism-based; conditions: dose 1-12 mg/kg
# [26] = Terminal elimination half life in ICR mouse at 12 mg/kg, po measured upto 24 hrs by LC-MS/MS analysis; assay type: ADME, organism-based; conditions: in vivo, read-out: beta t1/2 (converted)
# [27] = Terminal elimination half life in ICR mouse at 2 mg/kg, iv measured upto 24 hrs by LC-MS/MS analysis; assay type: ADME, organism-based; conditions: in vivo, read-out: beta t1/2 (converted)
# [28] = target: T1, Thromboxane A2 receptor (Mus musculus); test: Antagonist activity at thromboxane A2 receptor in ICR mouse plasma assessed as inhibition of U46619 induced platelet aggregation upto 8 uM preincubated for 5 mins followed by aggregation inducer addition and measured after 5 mins by light transmission aggregometry; assay type: functional, cell-free; conditions: time 10.0 min
# [29] = test system: Platelet; test: Antiplatelet aggregation activity in ICR mouse plasma assessed as inhibition of thrombin induced platelet aggregation upto 8 uM preincubated for 5 mins followed by aggregation inducer addition and measured after 5 mins by light transmission aggregometry; assay type: functional, cell-based; conditions: time 10.0 min
# [30] = target: T3, Proteinase-activated receptor 4 (Mus musculus); test: Antagonist activity at PAR4 in ICR mouse plasma assessed as inhibition of PAR4-activated peptide AYPGPK-NH2 induced platelet aggregation at 100 to 1000 nM preincubated for 5 mins followed by aggregation inducer addition and measured after 5 mins by light transmission aggregometry; assay type: cell-free; conditions: filed as antagonist, dose 100-1000 nM, time 10.0 min
# [31] = target: T2, Platelet glycoprotein VI (Mus musculus); test: Antagonist activity at GPVI in ICR mouse plasma assessed as inhibition of collagen induced platelet aggregation upto 8 uM preincubated for 5 mins followed by aggregation inducer addition and measured after 5 mins by light transmission aggregometry; assay type: cell-free; conditions: time 10.0 min
# [32] = test system: Platelet; test: Antagonist activity at P2Y1/P2Y12 in ICR mouse plasma assessed as inhibition of ADP induced platelet aggregation upto 8 uM preincubated for 5 mins followed by aggregation inducer addition and measured after 5 mins by light transmission aggregometry; assay type: cell-free; conditions: time 10.0 min
Structure (SMILES),inhibition at 20 µM [3] [%],clearance [4] [mL/min/kg],Activity [5],Activity [6],Tmax [7] [h],inhibition (INH) [8] [%],pIC50 [9],inhibition (INH) [10] [%],Activity [11],AUC(0-t) at 24 h [12] [ng·h/mL],Cmax [13] [ng/mL],half-life at 1 µM [14] [h],bioavailability [15] [%],Activity [16],Activity [17],Activity [18],pIC50 [19],Activity [20],AUC(0-t) at 24 h [22] [ng·h/mL],Activity [24],further results
COc1nn2cc(-c3cc4ccccc4o3)nc2s1,–,–,–,–,–,–,–,–,–,–,–,–,–,–,–,–,–,–,–,–,Activity [1]: inactive; Activity [2]: inactive
COc1nn2cc(-c3cc4ccc5c(c4o3)OC(COc3ccc(F)cc3)CO5)nc2s1 (stereo not given),85.9,23.8,inactive,inactive,1.67,>90,7.58,>90,inactive,1250,325,1.63,45.1,inactive,inactive,inactive,4.67,Dose-Dependent Effect,3460,Non-Toxic,Activity [21]: Active; Activity [23]: Active; Activity [25]: Dose-Dependent Effect; half-life [26]: 7.32 h; half-life [27]: 11.3 h
COc1nn2cc(-c3cc4ccc5c(c4o3)OCC(COc3ccc(F)cc3)O5)nc2s1 (stereo not given),87.2,3,inactive,inactive,2,>90,7.85,>90,inactive,5390,204,0.708,9.61,inactive,inactive,inactive,< 4.52,Dose-Dependent Effect,3040,Non-Toxic,Activity [28]: inactive; Activity [29]: inactive; Activity [30]: Active; Activity [31]: inactive; Activity [32]: inactive; Activity [25]: Dose-Dependent Effect; half-life [26]: 29.5 h; half-life [27]: 38.3 h
